Measurements from patent publication US6936624B2, “Agents for preserving technical materials against insects” (Nihon Bayer Agrochem K.K., priority 1991, dated 2005).
Several values for one entry are separate records, joined by “and”; a condition that tells them apart may be missing. Equal values may be shown once. Read-outs that look alike come from different tables or passages of the source.

What was measured:
[1] = system: Reticulitermes santonensis; settings: comparative values, Holz als Roh- und Werkstoff 35 (1977) 233-237, table 10; cited from earlier work
[2] = system: larvae of Hylotrupes bajulus; settings: comparative values, Holz als Roh- und Werkstoff 35 (1977) 233-237, table 6; cited from earlier work
[3] = system: worker termites (Coptotermes formosanus); assay: Formicidal test: treated filter paper in petri dish, termite mortality; assay type: in vivo; settings: for mortality at 0.32 ppm / mortality at 1.6 ppm / mortality at 8 ppm / mortality at 40 ppm: Coptotermes formosanus, 96 h, read-out: Mortality of termites after four days
Excerpt: Examples of the active compounds according to the present invention • I.1: 1-(6-chloro-3-pyridylmethyl)-2-nitromethylene-imidazolidine • I.2: 3-(6-chloro-3-pyridylmethyl)-2-nitromethylene-thiazolidine • I.3: imidacloprid
Comparative compounds • A: phoxim • B: chlorpyriphos Preparation of test formulation: • Solvent: 3 parts by weight of xylene • Emulsifier: 1 part by weight of polyoxyethylene-alkylphenyl-ether
To prepare a suitable formulation of the active compound, 1 part by weight of each of the active compounds was mixed with the above-mentioned amount of the solvent containing the above-mentioned amount of the emulsifier, and the mixture was diluted with water to a predetermined concentration.
1 ml of the aqueous solution prepared in the above-mentioned procedure was uniformly applied using a pipette onto a filter paper that was placed in petri dish of 9 cm diameter. Ten head of worker termites (Coptotermes formosanus) were replaced into the petri dish and it was kept in a constant temperature chamber at 25° C.
After four days, the mortality of the termites was investigated. This test procedure was carried out in duplicate per each concentration of the active compounds under test.

[4] = system: working termites and soldier termites (Coptotermes formosanus); assay: whole plant or invertebrate; assay type: in vivo; settings: for Degree of xylophagous damage in the pine tree block (0-5): after three weeks; for Mortality termites after three weeks: blocks aged four weeks at 40° C.; for mortality at 0.32 ppm / mortality at 1.6 ppm / mortality at 8 ppm / mortality at 40 ppm: Coptotermes formosanus, read-out: Mortality termites after three weeks
Method: Small blocks of Japanese redpine tree (2 cm×2 cm×2 cm) were soaked for one minute into the aqueous solution prepared by the similar procedure to Example 8.
After air-dried, they were kept in a constant temperature chamber at 40° C. for four weeks. Then each of the thus treated blocks was placed in a polymeric cup (10 cm diameter) containing 150 ml of sandy loam of 20% moisture content. Into each of the polymeric cups, 100 head of working termites and 10 head of soldier termites (Coptotermes formosanus) were released. After three weeks, the degree of xylophagous damage in the block and the mortality of the termites were investigated.

[5] = system: larvae of Hylotrupes bajulus; assay: Toxic value against larvae of Hylotrupes bajulus, DIN EN 47, impregnated wood samples; assay type: in vivo
Excerpt: The toxicity against larvae of Hylotorupes bajulus, using wood samples treated with the active compound I.3 […] to the detailed description of DIN EN 47 (edition 1990, Beuth Verlag GMBH) which is concerned with the European standard method prescribed by the European Committee for standardization concerning wood preservatives, determination of the toxic value against larvae of Hylotrupes bajulus.
An outline of the method is as follows: (see DIN EN 47 for detail)
Five wood-samples (50 mm×25 mm×15 mm) which are treated by the active compound beforehand (impregnation treatment in vacuum) are provided and in each specimen, a regular pattern of six holes are bored, and then one head of the larvae is inserted per a hole.
After four weeks, the specimens are cut up in turn and the number of live/dead of larvae is determined.
In determination, where a live larvae is identified in a specimen, then the remaining specimens without cutting up are stored for a further eight weeks, and afterword, the number of live/dead larvae is determined.

[6] = system: Reticulitermes santonensis; assay: Effectiveness against Reticulitermes santonensis, DIN EN 117, impregnated wood samples; assay type: in vivo; settings: eight weeks, per wood sample
Method: The toxicity against Reticulitermes santonensis of solutions containing the active compound I.3 in chloroform having the concentrations mentioned in Example 10 was determined according to the detailed description of DIN EN 117 Edition 1981 which is concerned with the European standard method prescribed by the European Committee for standardization concerning wood preservatives, determination of the toxic value against Reticulitermes santonesis.
An outline of the method is as follows: (see DIN EN 117 for detail)
The same three wood-samples with impregnation treatment in vacuum as in Example 10 are provided.
They are exposed to 250 workers, 1 soldier and 1 nymph per batch for eight weeks, and afterword, the number of live/dead larvae is determined.
The evaluation was made by the following standard:
* rating values: • 0=no attack • 1=attempted attack • 2=slight attack • 3=average attack • 4=strong attack

[7] = 0.32 ppm active compound, filter paper, 25° C.
[8] = 1.6 ppm active compound, filter paper, 25° C.
[9] = 8 ppm active compound, filter paper, 25° C.
[10] = 40 ppm active compound, filter paper, 25° C.
[11] = 4 weeks, impregnating solution 0.00144 %, M-value 10.80 g/m^3 wood
[12] = 4 weeks, impregnating solution 0.0072 %, M-value 52.85 g/m^3 wood
[13] = 4 weeks, impregnating solution 0.0144 %, M-value 103.97 g/m^3 wood
[14] = 12 weeks, impregnating solution 0.000144 % (so in the source), M-value 0.11 g/m^3 wood
[15] = 12 weeks, impregnating solution 0.000144 %, M-value 1.08 g/m^3 wood
[16] = 12 weeks, impregnating solution 0.00144 % (remaining three specimens), M-value 10.80 g/m^3 wood
[17] = 1.44 × 10^−2% (m/m), average absorbed 136.627 g/m^3
[18] = 1.44 × 10^−3% (m/m), average absorbed 13.463 g/m^3
[19] = 1.44 × 10^−4% (m/m), average absorbed 1.344 g/m^3
[20] = 1.44 × 10^−5% (m/m), average absorbed 0.135 g/m^3
[21] = 7.20 × 10^−3% (m/m), average absorbed 68.211 g/m^3

Clc1ccc(C(c2ccc(Cl)cc2)C(Cl)(Cl)Cl)cc1 [DDT]
toxic value [1]: >1 500 g/m^3 | toxic value [2]: 5-10 g/m^3

CCC(C)c1ccccc1OC(=O)NC (stereo not drawn) [Bassa (Baycarb)]
toxic value [1]: 500 g/m^3

CCOP(=S)(OCC)ON=C(C#N)c1ccccc1Cl [Chlorophoxim]
toxic value [1]: 500 g/m^3

CCOP(=S)(OCC)Oc1nc(Cl)c(Cl)cc1Cl [B, 0,0-diethyl-3,5,6-trichloro-2-pyridylphosphorothioate, reference compound]
Mortality of termites after four days [3, 7]: 100% | Mortality of termites after four days [3, 8]: 100% | Mortality of termites after four days [3, 9]: 100% | Mortality of termites after four days [3, 10]: 100% | Degree of xylophagous damage in the pine tree block (0-5) ([4]; 0.32 ppm): 5 | Mortality termites after three weeks ([4]; 0.32 ppm): 0% | Degree of xylophagous damage in the pine tree block (0-5) ([4]; 1.6 ppm): 3 | Mortality termites after three weeks ([4]; 1.6 ppm): 0% | Degree of xylophagous damage in the pine tree block (0-5) ([4]; 8 ppm): 1 | Mortality termites after three weeks ([4]; 8 ppm): 78% | Degree of xylophagous damage in the pine tree block (0-5) ([4]; 40 ppm): 0 | Mortality termites after three weeks ([4]; 40 ppm): 100%

CNC(=O)Oc1ccccc1OC(C)C [Propoxur]
toxic value [1]: 140 g/m^3 | toxic value [2]: 18-30 g/m^3

CCOP(=S)(OCC)Oc1ccc([N+](=O)[O-])cc1 [Ethylparathion]
toxic value [1]: 200 g/m^3

O=[N+]([O-])N=C1NCCN1Cc1ccc(Cl)nc1 [I.3, 1-(6-chloro-3-pyridylmethyl)-2-nitroimino-imidazolidine]
mortality at 0.32 ppm [3]: 100% | mortality at 1.6 ppm [3]: 100% | mortality at 8 ppm [3]: 100% | mortality at 40 ppm [3]: 100% | State of the larvae at the end of the test: dead, no wood digested [5, 11]: 4 | State of the larvae at the end of the test: dead, wood digested [5, 11]: 6 | State of the larvae at the end of the test: living [5, 11]: 1 | State of the larvae at the end of the test: not found [5, 11]: 1 | State of the larvae at the end of the test: dead, no wood digested [5, 12]: 29 | State of the larvae at the end of the test: dead, wood digested [5, 12]: 1 | State of the larvae at the end of the test: living [5, 12]: 0 | State of the larvae at the end of the test: not found [5, 12]: 0 | State of the larvae at the end of the test: dead, no wood digested [5, 13]: 27 | State of the larvae at the end of the test: dead, wood digested [5, 13]: 3 | State of the larvae at the end of the test: living [5, 13]: 0 | State of the larvae at the end of the test: not found [5, 13]: 0 | State of the larvae at the end of the test: dead, no wood digested [5, 14]: 1 | State of the larvae at the end of the test: dead, wood digested [5, 14]: 4 | State of the larvae at the end of the test: living [5, 14]: 23 | State of the larvae at the end of the test: not found [5, 14]: 2 | State of the larvae at the end of the test: dead, no wood digested [5, 15]: 4 | State of the larvae at the end of the test: dead, wood digested [5, 15]: 12 | State of the larvae at the end of the test: living [5, 15]: 11 | State of the larvae at the end of the test: not found [5, 15]: 3 | State of the larvae at the end of the test: dead, no wood digested [5, 16]: 6 | State of the larvae at the end of the test: dead, wood digested [5, 16]: 11 | State of the larvae at the end of the test: living [5, 16]: 0 | State of the larvae at the end of the test: not found [5, 16]: 1 | rating [6, 17]: 0 | surviving workers [6, 17]: 0% | rating [6, 18]: 1 | surviving workers [6, 18]: 0% | rating [6, 19]: 1 | surviving workers [6, 19]: 0% | rating [6, 20]: 4 | surviving workers [6, 20]: 55% and 51% and 58% | rating [6, 21]: 0 | surviving workers [6, 21]: 0% | Degree of xylophagous damage in the pine tree block (0-5) ([4]; 0.32 ppm): 0 | Degree of xylophagous damage in the pine tree block (0-5) ([4]; 1.6 ppm): 0 | Degree of xylophagous damage in the pine tree block (0-5) ([4]; 8 ppm): 0 | Degree of xylophagous damage in the pine tree block (0-5) ([4]; 40 ppm): 0 | mortality at 0.32 ppm [4]: 100% | mortality at 1.6 ppm [4]: 100% | mortality at 8 ppm [4]: 100% | mortality at 40 ppm [4]: 100%

O=[N+]([O-])C=C1NCCN1Cc1ccc(Cl)nc1 [I.1, 1-(6-chloro-3-pyridylmethyl)-2-nitromethylene-imidazolidine]
mortality at 0.32 ppm [3, 7]: 100% | mortality at 1.6 ppm [3, 8]: 100% | mortality at 8 ppm [3, 9]: 100% | mortality at 40 ppm [3, 10]: 100% | Degree of xylophagous damage in the pine tree block (0-5) ([4]; 0.32 ppm): 0.5 | Degree of xylophagous damage in the pine tree block (0-5) ([4]; 1.6 ppm): 0 | Degree of xylophagous damage in the pine tree block (0-5) ([4]; 8 ppm): 0 | Degree of xylophagous damage in the pine tree block (0-5) ([4]; 40 ppm): 0 | mortality at 0.32 ppm [4]: 98% | mortality at 1.6 ppm [4]: 100% | mortality at 8 ppm [4]: 100% | mortality at 40 ppm [4]: 100%

ClC1=C(Cl)[C@]2(Cl)[C@@H]3[C@@H]4C[C@@H]([C@H]5O[C@@H]45)[C@@H]3[C@@]1(Cl)C2(Cl)Cl [Dieldrin]
toxic value [1]: 50 g/m^3

O=[N+]([O-])C=C1SCCN1Cc1ccc(Cl)nc1 [I.2, 3-(6-chloro-3-pyridylmethyl)-2-nitromethylene-thiazolidine]
mortality at 0.32 ppm [3]: 100% | mortality at 1.6 ppm [3]: 100% | mortality at 8 ppm [3]: 100% | mortality at 40 ppm [3]: 100% | Degree of xylophagous damage in the pine tree block (0-5) ([4]; 0.32 ppm): 0 | Degree of xylophagous damage in the pine tree block (0-5) ([4]; 1.6 ppm): 0 | Degree of xylophagous damage in the pine tree block (0-5) ([4]; 8 ppm): 0 | Degree of xylophagous damage in the pine tree block (0-5) ([4]; 40 ppm): 0 | mortality at 0.32 ppm [4]: 100% | mortality at 1.6 ppm [4]: 100% | mortality at 8 ppm [4]: 100% | mortality at 40 ppm [4]: 100%

Cl[C@H]1[C@H](Cl)[C@@H](Cl)[C@@H](Cl)[C@H](Cl)[C@H]1Cl [Lindan]
toxic value [1]: 75 g/m^3

CCOP(=S)(OCC)O/N=C(\C#N)c1ccccc1 [A, 0-(α-cyanobenzylideneamino)0,0-diethylphosphorothioate, reference compound]
toxic value [1]: 400 g/m^3 | mortality at 0.32 ppm [3, 7]: 90% | mortality at 1.6 ppm [3, 8]: 100% | mortality at 8 ppm [3, 9]: 100% | mortality at 40 ppm [3, 10]: 100% | toxic value [2]: 7-12 g/m^3 | Degree of xylophagous damage in the pine tree block (0-5) ([4]; 0.32 ppm): 5 | Degree of xylophagous damage in the pine tree block (0-5) ([4]; 1.6 ppm): 5 | Degree of xylophagous damage in the pine tree block (0-5) ([4]; 8 ppm): 5 | Degree of xylophagous damage in the pine tree block (0-5) ([4]; 40 ppm): 3 | mortality at 0.32 ppm [4]: 0% | mortality at 1.6 ppm [4]: 0% | mortality at 8 ppm [4]: 0% | mortality at 40 ppm [4]: 25%
